Converted amounts (≈) assume the structure as drawn.
Experiments:
Assay type in all cases: functional
Klebsiella pneumoniae = test: Antibacterial activity of compound was measured against Klebsiella pneumoniae A9432 organism
Staphylococcus aureus [1] = test: Antibacterial activity of compound was measured against Staphylococcus aureus (MR) A20699 organism
Staphylococcus aureus [2] = test: Antibacterial activity of compound was measured against Staphylococcus aureus (MR) CEF1198 organism
Escherichia coli = test: Antibacterial activity of compound was measured against Escherichia coli A15119 organism
Staphylococcus aureus [3] = test: Antibacterial activity of compound was measured against Staphylococcus aureus A9537 organism

SMILES | MIC (Klebsiella pneumoniae) | MIC (Staphylococcus aureus [1]) | MIC (Staphylococcus aureus [2]) | MIC (Escherichia coli) | MIC (Staphylococcus aureus [3])
C[S+]([O-])/C=C/C1=C(C(=O)O)N2C(=O)[C@@H](NC(=O)Cc3cccs3)[C@H]2SC1 (some centres undefined) | 0.5 µg/mL (≈ 1.21 µM) | 16 µg/mL (≈ 38.8 µM) | 4 µg/mL (≈ 9.7 µM) | 1 µg/mL (≈ 2.42 µM) | 0.03 µg/mL (≈ 0.0727 µM)
CS(=O)(=O)/C=C/C1=C(C(=O)O)N2C(=O)[C@@H](NC(=O)Cc3cccs3)[C@H]2SC1 | 0.5 µg/mL (≈ 1.17 µM) | 4 µg/mL (≈ 9.33 µM) | 0.5 µg/mL (≈ 1.17 µM) | 0.5 µg/mL (≈ 1.17 µM) | 0.06 µg/mL (≈ 0.14 µM)
O=C(Cc1cccs1)N[C@@H]1C(=O)N2C(C(=O)O)=C(/C=C/[S+]([O-])c3ccc([N+](=O)[O-])cc3)CS[C@H]12 (some centres undefined) | 64 µg/mL (≈ 123 µM) | 64 µg/mL (≈ 123 µM) |  | 64 µg/mL (≈ 123 µM) | 0.5 µg/mL (≈ 0.962 µM)
Cc1ccc([S+]([O-])/C=C/C2=C(C(=O)O)N3C(=O)[C@@H](NC(=O)Cc4cccs4)[C@H]3SC2)cc1 (some centres undefined) | 2 µg/mL (≈ 4.09 µM) | 16 µg/mL (≈ 32.7 µM) | 8 µg/mL (≈ 16.4 µM) | 4 µg/mL (≈ 8.19 µM) | 0.25 µg/mL (≈ 0.512 µM)
COc1cccc(OC)c1C(=O)N[C@@H]1C(=O)N2[C@@H]1SC(C)(C)[C@@H]2C(=O)O [METHICILLIN] | > 128 µg/mL | 32 µg/mL (≈ 84.1 µM) | 32 µg/mL (≈ 84.1 µM) | > 128 µg/mL | 0.5 µg/mL (≈ 1.31 µM)
